Assays:
Italian ryegrass [1] = assay: Test A postemergence; assay type: in vivo, Lolium multiflorum; details: 1000 g ai/ha, 0 to 100 scale, 0 no effect, 100 complete control
Excerpt: (§1) Seeds of plant species selected from barnyardgrass (Echinochloa crus-galli), kochia (Kochia scoparia), ragweed (common ragweed, Ambrosia elatior), Italian ryegrass (Lolium multiflorum), large (Lg) crabgrass (Digitaria sanguinalis), giant foxtail (Setaria faberii), morningglory (Ipomoea spp.), pigweed (Amaranthus retroflexus), velvetleaf (Abutilon theophrasti), wheat (Triticum aestivum), and corn (Zea mays) were planted into a blend of loam soil and sand and treated preemergence with a directed soil spray using test chemicals formulated in a non-phytotoxic solvent mixture which included a surfactant.
(§2) At the same time, plants selected from these crop and weed species and also blackgrass (Alopecurus myosuroides), and galium (catchweed bedstraw, Galium aparine) were planted in pots containing the same blend of loam soil and sand and treated with postemergence applications of test chemicals formulated in the same manner. Plants ranged in height from 2 to 10 cm and were in the one- to two-leaf stage for the postemergence treatment. Treated plants and untreated controls were maintained in a greenhouse for approximately 10 days, after which time all treated plants were compared to untreated controls and visually evaluated for injury. Plant response ratings, summarized in Table A, are based on a 0 to 100 scale where 0 is no effect and 100 is complete control. A dash (-) response means no test result.

blackgrass = assay: Test A postemergence; assay type: in vivo, Alopecurus myosuroides; details: 1000 g ai/ha, 0 to 100 scale, 0 no effect, 100 complete control
Excerpt: as §1, §2

galium = assay: Test A postemergence; assay type: in vivo, Galium aparine; details: 1000 g ai/ha, 0 to 100 scale, 0 no effect, 100 complete control
Excerpt: as §1, §2

ragweed [2] = assay: Test A postemergence; assay type: in vivo, Ambrosia elatior; details: 1000 g ai/ha, 0 to 100 scale, 0 no effect, 100 complete control
Excerpt: as §1, §2

corn [3] = assay: Test A postemergence; assay type: in vivo, Zea mays
Procedure, shortened: (§3)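 Visual 0–100 rating (100 = complete control) taken about 10 d post-treatment relative to untreated checks. Preemergence: directed soil spray on sown loam/sand pots. Postemergence: seedlings 2–10 cm, 1–2 leaf. Non-phytotoxic solvent formulation with surfactant.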

giant foxtail [4] = assay: Test A preemergence; assay type: in vivo, Setaria faberii; details: for Foxtail, Giant plant response rating: 0 to 100 scale, 0 no effect, 100 complete control, approx. 10 days
Procedure, shortened: as §3

giant foxtail [5] = assay: Test A postemergence; assay type: in vivo, Setaria faberii
Procedure, shortened: as §3

barnyardgrass [6] = assay: Test A preemergence; assay type: in vivo, Echinochloa crus-galli; details: for Barnyardgrass plant response rating: 0 to 100 scale, 0 no effect, 100 complete control, approx. 10 days
Procedure, shortened: as §3

wheat [7] = assay: Test A postemergence; assay type: in vivo, Triticum aestivum
Procedure, shortened: as §3

Italian ryegrass [8] = assay: Test A preemergence; assay type: in vivo, Lolium multiflorum; details: 1000 g ai/ha, 0 to 100 scale, 0 no effect, 100 complete control, approx. 10 days
Excerpt: as §1, §2

kochia [9] = assay: Test A preemergence; assay type: in vivo, Kochia scoparia; details: 1000 g ai/ha, 0 to 100 scale, 0 no effect, 100 complete control, approx. 10 days
Excerpt: as §1, §2

ragweed [10] = assay: Test A preemergence; assay type: in vivo, Ambrosia elatior; details: 1000 g ai/ha, 0 to 100 scale, 0 no effect, 100 complete control, approx. 10 days
Excerpt: as §1, §2

pigweed [11] = assay: Test A preemergence; assay type: in vivo, Amaranthus retroflexus; details: for Pigweed plant response rating: 0 to 100 scale, 0 no effect, 100 complete control, approx. 10 days
Procedure, shortened: as §3

pigweed [12] = assay: Test A postemergence; assay type: in vivo, Amaranthus retroflexus
Procedure, shortened: as §3

barnyardgrass [13] = assay: Test A postemergence; assay type: in vivo, Echinochloa crus-galli
Procedure, shortened: as §3

kochia [14] = assay: Test A postemergence; assay type: in vivo, Kochia scoparia; details: 1000 g ai/ha, 0 to 100 scale, 0 no effect, 100 complete control
Excerpt: as §1, §2

wheat [15] = assay: Test A preemergence; assay type: in vivo, Triticum aestivum; details: for Wheat plant response rating: 0 to 100 scale, 0 no effect, 100 complete control, approx. 10 days
Procedure, shortened: as §3

morningglory [16] = assay: Test A preemergence; assay type: in vivo, Ipomoea spp.; details: for Morningglory plant response rating: 0 to 100 scale, 0 no effect, 100 complete control, approx. 10 days
Procedure, shortened: as §3

corn [17] = assay: Test A preemergence; assay type: in vivo, Zea mays; details: for Corn plant response rating: 0 to 100 scale, 0 no effect, 100 complete control, approx. 10 days
Procedure, shortened: as §3

morningglory [18] = assay: Test A postemergence; assay type: in vivo, Ipomoea spp.
Procedure, shortened: as §3

rice = assay: Test B flooded paddy test; assay type: in vivo, Oryza sativa; details: Flood, 250 g ai/ha; 0 to 100 scale where 0 is no effect and 100 is complete control
Procedure, shortened: (§4)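 Plants were grown to the 2-leaf stage, then pots were flooded to 3 cm above the soil and compounds were applied directly into the paddy water. That depth was held throughout, and after 13 to 15 days in the greenhouse injury was rated visually against controls on a 0–100 scale (0 no effect, 100 complete control).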

sedge, umbrella = assay: Test B flooded paddy test; assay type: in vivo, Cyperus difformis; details: Flood, 250 g ai/ha; 0 to 100 scale where 0 is no effect and 100 is complete control
Procedure, shortened: as §4

barnyardgrass [19] = assay: Test B flooded paddy test; assay type: in vivo, Echinochloa crus-galli; details: Flood, 250 g ai/ha; 0 to 100 scale where 0 is no effect and 100 is complete control
Procedure, shortened: as §4

large (Lg) crabgrass [20] = assay: Test A postemergence; assay type: in vivo, Digitaria sanguinalis
Procedure, shortened: as §3

velvetleaf [21] = assay: Test A postemergence; assay type: in vivo, Abutilon theophrasti
Procedure, shortened: as §3

large (Lg) crabgrass [22] = assay: Test A preemergence; assay type: in vivo, Digitaria sanguinalis; details: for Crabgrass, Large plant response rating: 0 to 100 scale, 0 no effect, 100 complete control, approx. 10 days
Procedure, shortened: as §3

Heteranthera limosa = assay: Test B flooded paddy test; assay type: in vivo; details: Flood, 250 g ai/ha; 0 to 100 scale where 0 is no effect and 100 is complete control
Procedure, shortened: as §4

velvetleaf [23] = assay: Test A preemergence; assay type: in vivo, Abutilon theophrasti; details: for Velvetleaf plant response rating: 0 to 100 scale, 0 no effect, 100 complete control, approx. 10 days
Procedure, shortened: as §3

[24] = 1000 g ai/ha, 0 to 100 scale, 0 no effect, 100 complete control
[25] = 125 g ai/ha, 0 to 100 scale where 0 is no effect and 100 is complete control
[26] = 500 g ai/ha, 0 to 100 scale, 0 no effect, 100 complete control

O=Cc1cn(-c2c(F)cccc2Oc2ncc(Cl)cn2)nn1 [Compound 139]
Plant response rating, Ryegrass, Italian (Italian ryegrass [1]): 0 | Plant response rating, Blackgrass (blackgrass): 0 | Plant response rating, Galium (galium): 10 | Plant response rating, Ragweed (ragweed [2]): 0 | Plant response rating, Corn (corn [3]; [24]): 20 | Foxtail, Giant plant response rating (giant foxtail [4]; 1000 g ai/ha): 0 | Plant response rating, Foxtail, Giant (giant foxtail [5]; [24]): 0 | Barnyardgrass plant response rating (barnyardgrass [6]; 1000 g ai/ha): 0 | Plant response rating, Wheat (wheat [7]; [24]): 0 | Ryegrass, Italian plant response rating (Italian ryegrass [8]): 0 | Kochia plant response rating (kochia [9]): 0 | Ragweed plant response rating (ragweed [10]): 0 | Pigweed plant response rating (pigweed [11]; 1000 g ai/ha): 50 | Plant response rating, Pigweed (pigweed [12]; [24]): 30 | Plant response rating, Barnyardgrass (barnyardgrass [13]; [24]): 0 | Plant response rating, Kochia (kochia [14]): 0

C=C(C)c1cnn(-c2ccccc2Oc2ncc(Cl)cn2)c1 [Compound 32]
Plant response rating, Wheat (wheat [15]; [25]): 0 | Wheat plant response rating (wheat [15]; 500 g ai/ha): 0 | Plant response rating, Morningglory (morningglory [16]; [25]): 0 | Morningglory plant response rating (morningglory [16]; 500 g ai/ha): 0 | Plant response rating, Corn (corn [17]; [25]): 0 | Corn plant response rating (corn [17]; 500 g ai/ha): 0 | Plant response rating, Morningglory (morningglory [18]; [25]): 0 | Plant response rating, Morningglory (morningglory [18]; [26]): 0 | Plant response rating, Corn (corn [3]; [25]): 0 | Plant response rating, Corn (corn [3]; [26]): 20 | Plant response rating, Foxtail, Giant (giant foxtail [4]; [25]): 0 | Foxtail, Giant plant response rating (giant foxtail [4]; 500 g ai/ha): 70 | Plant response rating, Foxtail, Giant (giant foxtail [5]; [25]): 0 | Plant response rating, Foxtail, Giant (giant foxtail [5]; [26]): 30 | Plant response rating, Rice (rice): 15 | Plant response rating, Barnyardgrass (barnyardgrass [6]; [25]): 0 | Barnyardgrass plant response rating (barnyardgrass [6]; 500 g ai/ha): 60 | Plant response rating, Wheat (wheat [7]; [25]): 0 | Plant response rating, Wheat (wheat [7]; [26]): 0 | Plant response rating, Sedge, Umbrella (sedge, umbrella): 0 | Plant response rating, Barnyardgrass (barnyardgrass [19]): 0 | Plant response rating, Crabgrass, Large (large (Lg) crabgrass [20]; [25]): 50 | Plant response rating, Crabgrass, Large (large (Lg) crabgrass [20]; [26]): 50 | Plant response rating, Velvetleaf (velvetleaf [21]; [25]): 80 | Plant response rating, Velvetleaf (velvetleaf [21]; [26]): 100 | Plant response rating, Crabgrass, Large (large (Lg) crabgrass [22]; [25]): 0 | Crabgrass, Large plant response rating (large (Lg) crabgrass [22]; 500 g ai/ha): 60 | Plant response rating, Ducksalad (Heteranthera limosa): 0 | Plant response rating, Pigweed (pigweed [11]; [25]): 0 | Pigweed plant response rating (pigweed [11]; 500 g ai/ha): 40 | Plant response rating, Pigweed (pigweed [12]; [25]): 50 | Plant response rating, Pigweed (pigweed [12]; [26]): 70 | Plant response rating, Barnyardgrass (barnyardgrass [13]; [25]): 0 | Plant response rating, Barnyardgrass (barnyardgrass [13]; [26]): 20 | Plant response rating, Velvetleaf (velvetleaf [23]; [25]): 10 | Velvetleaf plant response rating (velvetleaf [23]; 500 g ai/ha): 70

CC(=O)c1cn(-c2c(Br)cccc2Oc2ncc(Cl)cn2)nn1 [Compound 280]
Wheat plant response rating (wheat [15]; 1000 g ai/ha): 40 | Morningglory plant response rating (morningglory [16]; 1000 g ai/ha): 0 | Corn plant response rating (corn [17]; 1000 g ai/ha): 50 | Plant response rating, Morningglory (morningglory [18]; [24]): 30 | Plant response rating, Corn (corn [3]; [24]): 50 | Foxtail, Giant plant response rating (giant foxtail [4]; 1000 g ai/ha): 100 | Plant response rating, Foxtail, Giant (giant foxtail [5]; [24]): 90 | Plant response rating, Rice (rice): 10 | Barnyardgrass plant response rating (barnyardgrass [6]; 1000 g ai/ha): 100 | Plant response rating, Wheat (wheat [7]; [24]): 40 | Plant response rating, Sedge, Umbrella (sedge, umbrella): 10 | Plant response rating, Barnyardgrass (barnyardgrass [19]): 10 | Plant response rating, Crabgrass, Large (large (Lg) crabgrass [20]; [24]): 90 | Plant response rating, Velvetleaf (velvetleaf [21]; [24]): 90 | Crabgrass, Large plant response rating (large (Lg) crabgrass [22]; 1000 g ai/ha): 100 | Plant response rating, Ducksalad (Heteranthera limosa): 30 | Pigweed plant response rating (pigweed [11]; 1000 g ai/ha): 100 | Plant response rating, Pigweed (pigweed [12]; [24]): 100 | Plant response rating, Barnyardgrass (barnyardgrass [13]; [24]): 90 | Velvetleaf plant response rating (velvetleaf [23]; 1000 g ai/ha): 100
